Experimental data reported in US12359230B2, “Microbial oils with high levels of omega-3 fatty acids” (MARA Renewables Corporation, priority 2020, dated 2025).

Key:
Type in all cases: cell-based
[1] = test system: Aurantiochytrium sp. (G3); assay: Cerulenin concentration: fatty acid profile of Aurantiochytrium sp. (G3); conditions: 20° C.
Procedure: To determine the optimum concentration of cerulenin to provide the best results, a range of concentrations from 1 μM to 40 μM were tested. For consistency, all cerulenin additions were made at 24 hours after inoculation. […] (G3) in varying concentrations of cerulenin at 20° C.

[2] = test system: Aurantiochytrium sp. (G3); assay: Cerulenin dose timing: fatty acid profile of Aurantiochytrium sp. (G3)
Procedure: To determine the ideal time for addition of the fatty acid synthase inhibitor cerulenin without excessive harm such as preventing cell growth, experiments were conducted by adding a set amount of cerulenin at various amounts of time after inoculation. In all experiments, the control experiment was performed with the same medium and growth conditions without the addition of FAS inhibitors.

[3] = test system: Aurantiochytrium sp. (G3); assay: Cerulenin effect on product concentration and yield per carbon consumed
From the text: To assess the impact of the herein described methods for PUFA enhancement strategy, the yields of product (i.e. TFA, DHA or DPA) relative to the amount of carbon assimilated by the G3 cells was investigated. In FIG. 5, the total amount of product synthesized (categorized as total fatty acids (TFA), saturated fatty acids (SFA) or DHA) is depicted. In the presence of fatty acid synthesis inhibitors, dosed at certain frequency and concentration, both TFA and DHA concentration increased while SFA concentration decreased. For example, under the condition where cerulenin was dosed 1 μM each time for 6 times at 12 hour intervals, TFA and DHA increased by 15% and 71%, respectively, when compared to the results of the control experiment (FIG. 5).

[4] = test system: Aurantiochytrium sp. (G3); assay: Cerulenin dosing regimen: fatty acid profile of Aurantiochytrium sp. (G3); conditions: for DHA: DPA / Fatty Acid Content, TFA: 20° C.
Procedure: To investigate the effect of prolonged, repeated exposure to cerulenin, doses were spread equally across 3 or 6 times during the experiment. In each case, the total amount added was equivalent to the corresponding treatments that were added entirely at 24 hours. All additions began at 24 hours after inoculation. In FIGS. 3 and 4, a clear trend of increasing DHA and DPA was visible with both increasing cerulenin concentration and by dosing the cerulenin in multiple equivalent pulses.

[5] = 1 μM cerulenin added at 24 hours after inoculation
[6] = 2 μM cerulenin added at 24 hours after inoculation
[7] = 3 μM cerulenin added at 24 hours after inoculation
[8] = 6 μM cerulenin added at 24 hours after inoculation
[9] = 9 μM cerulenin added at 24 hours after inoculation
[10] = 25 μM cerulenin added at 24 hours after inoculation
[11] = 40 μM cerulenin added at 24 hours after inoculation
[12] = 25 μM cerulenin added 0 hr after inoculation, 20° C.
[13] = 25 μM cerulenin added 24 hr after inoculation, 20° C.
[14] = 25 μM cerulenin added 48 hr after inoculation, from 25° C. data
[15] = cerulenin added 24 hours after inoculation
[16] = cerulenin 1 μM each time for 6 times at 12 hour intervals
[17] = 3 μM cerulenin added entirely at 24 hours
[18] = 6 μM cerulenin added entirely at 24 hours
[19] = 9 μM cerulenin added entirely at 24 hours
[20] = 25 μM cerulenin added entirely at 24 hours
[21] = 3 × 1 μM cerulenin, interval 24 hours, starting at 24 hours after inoculation
[22] = 3 × 2 μM cerulenin, interval 24 hours, starting at 24 hours after inoculation
[23] = 3 × 3 μM cerulenin, interval 24 hours, starting at 24 hours after inoculation
[24] = 3 × 8.3 μM cerulenin, interval 24 hours, starting at 24 hours after inoculation
[25] = 6 × 0.5 μM cerulenin, interval 12 hours, starting at 24 hours after inoculation
[26] = 6 × 1 μM cerulenin, interval 12 hours, starting at 24 hours after inoculation
[27] = 6 × 2 μM cerulenin, interval 12 hours, starting at 24 hours after inoculation
[28] = 6 × 3 μM cerulenin, interval 12 hours, starting at 24 hours after inoculation
[29] = 6 × 4.17 μM cerulenin, interval 12 hours, starting at 24 hours after inoculation

Structure (SMILES): C/C=C/C/C=C/CCC(=O)[C@H]1O[C@H]1C(N)=O [cerulenin]
- DHA: DPA [1, 5]: 8.73
- Fatty Acid Content, TFA [1, 5]: 580.28 mg/g of dry biomass
- DHA: DPA [1, 6]: 8.50
- Fatty Acid Content, TFA [1, 6]: 580.90 mg/g of dry biomass
- DHA: DPA [1, 7]: 6.77
- Fatty Acid Content, TFA [1, 7]: 658.72 mg/g of dry biomass
- DHA: DPA [1, 8]: 6.87
- Fatty Acid Content, TFA [1, 8]: 619.88 mg/g of dry biomass
- DHA: DPA [1, 9]: 6.26
- Fatty Acid Content, TFA [1, 9]: 603.79 mg/g of dry biomass
- DHA: DPA [1, 10]: 5.27
- Fatty Acid Content, TFA [1, 10]: 578.10 mg/g of dry biomass
- DHA: DPA [1, 11]: 4.54
- Fatty Acid Content, TFA [1, 11]: 540.11 mg/g of dry biomass
- DHA: DPA [2, 12]: 6.13
- Fatty Acid Content, TFA [2, 12]: 579.14 mg/g of dry biomass
- DHA: DPA [2, 13]: 5.14
- Fatty Acid Content, TFA [2, 13]: 560.24 mg/g of dry biomass
- DHA: DPA [2, 14]: 4.58
- Fatty Acid Content, TFA [2, 14]: 641.86 mg/g of dry biomass
- C14:0 reduced (% of TFA, vs control) [2, 15]: 21.1%
- C16:0 reduced (% of TFA, vs control) [2, 15]: 27.9%
- cell growth ([2]; cerulenin added at any addition time after inoculation): not inhibited
- increase in DHA yield (gram product/gram carbon consumed) vs control ([3]; 6×1 μM cerulenin): 53%
- reduction in SFA yield (gram product/gram carbon consumed) vs control ([3]; 6×1 μM cerulenin): 64%
- DHA concentration increased vs control [3, 16]: 71%
- TFA concentration increased vs control [3, 16]: 15%
- DHA: DPA [4, 17]: 6.77
- Fatty Acid Content, TFA [4, 17]: 658.72 mg/g of dry biomass
- DHA: DPA [4, 18]: 6.87
- Fatty Acid Content, TFA [4, 18]: 619.88 mg/g of dry biomass
- DHA: DPA [4, 19]: 6.26
- Fatty Acid Content, TFA [4, 19]: 603.79 mg/g of dry biomass
- DHA: DPA [4, 20]: 5.40
- Fatty Acid Content, TFA [4, 20]: 595.96 mg/g of dry biomass
- DHA: DPA [4, 21]: 6.67
- Fatty Acid Content, TFA [4, 21]: 636.22 mg/g of dry biomass
- DHA: DPA [4, 22]: 6.10
- Fatty Acid Content, TFA [4, 22]: 614.40 mg/g of dry biomass
- DHA: DPA [4, 23]: 6.28
- Fatty Acid Content, TFA [4, 23]: 597.67 mg/g of dry biomass
- DHA: DPA [4, 24]: 4.75
- Fatty Acid Content, TFA [4, 24]: 617.52 mg/g of dry biomass
- DHA increase ([4]; 6 equivalent doses of cerulenin, 12 μM in total): 51.6%
- DHA: DPA [4, 25]: 5.66
- Fatty Acid Content, TFA [4, 25]: 616.79 mg/g of dry biomass
- DHA: DPA [4, 26]: 5.12
- Fatty Acid Content, TFA [4, 26]: 620.75 mg/g of dry biomass
- DHA: DPA [4, 27]: 4.69
- Fatty Acid Content, TFA [4, 27]: 585.23 mg/g of dry biomass
- DHA: DPA [4, 28]: 4.19
- Fatty Acid Content, TFA [4, 28]: 540.81 mg/g of dry biomass
- DHA: DPA [4, 29]: 3.91
- Fatty Acid Content, TFA [4, 29]: 538.56 mg/g of dry biomass
- DHA % ([4]; flask experiment, multiple and intermittent dosing of cerulenin (12 μM total, 20° C., FIG. 7)): 68.7%
- maximal decrease in C14:0 ([4]; repeated cerulenin dosing): 85.1%
- maximal decrease in C16:0 ([4]; repeated cerulenin dosing): 83.9%
- impact on total fatty acids ([4]; repeated dose addition of cerulenin): no negative impact
